Laboratory results from patent US20090036527A1, “Therapeutic Application Of Leonurine In Treating Cardiomyopathy” (priority 2007, published 2009).
Where two headings read alike, the source gives them in different places.

Tests used:
[1] = Acta Physiologica Sinica 2007; cited from earlier work
myocardial cells [2] = assay: Myocardial cell viability (MTT) after hypoxia; type: cell-based, rat; conditions: hypoxia 6 hours; 10^−6 mol/L; vs vehicle (MI) group; p<0.01
Procedure: The heart sample of 3 day old Sprague-Dawley (SD) rat (first generation) was washed in PBS (phosphate balanced solution) under sterilized condition. The sample is digested in 0.08% pancreatic enzyme solution 37 degree C for 10 minutes in a flask, wherein the solution was stirred constantly. In order to stop the digestion, serum was added into the flask and mixed with the solution. The digesting process was repeated 8 times, and the supernatant of each digestion was collected. The supernatant was centrifuged 2,000/minute for 5 minutes, and the myocardial cells were collected each time. The myocardial cell density was adjusted to 10^6/sample and cultured in DMEM containing 10% calf serum for 3 days.
The cultured myocardial cells were divided into the following groups:
Control group, no Leonurine treatment, no hypoxia process.
Hypoxia (vehicle, MI) group, no Leonurine treatment, under hypoxia condition for 6 hours.
Leonurine group, under hypoxia condition for 6 hours then cultured with corresponding treatment of Leonurine 10^−6 mol/L. […]
Myocardial cell viability was assessed by MTT method, which is the measurement of the reduction of 3-(4,5-dimethylthiazol-2-yl)-2,5-diphenyltetrazolium bromide (MTT). […] The amount of formazan was measured using a microplate reader at spectrum 570 nm.

[3] = test system: vascular smooth muscle cells; conditions: Chen and Kwan, Life Sciences 2001; cited from earlier work
myocardial cells [4] = assay: LDH leakage (release) from hypoxia injured myocardial cells; type: cell-based, rat; conditions: hypoxia 6 hours; 10^−6 mol/L; vs vehicle (hypoxia) group; p<0.01
Procedure: Myocardial cell samples were obtained from the same procedure of Example 1A, the experiment groups were divided and hypoxia experiments were performed on Control group (no Leonurine treatment, no hypoxia/reoxygenation process), vehicle (hypoxia) group (no Leonurine treatment, under hypoxia condition for 6 hours), and Leonurine group (10^−6 mol/L). Myocardial cells were obtained from each sample (10^6 myocardial cells/sample) from the Control group, vehicle (hypoxia) group, Leonurine group. The cells were lysed under sterilized condition, and LDH (Lactate Dehydrogenase) contents in each sample of the cells were tested by pyruvic acid production method, using LDH content in Control sample cells as standard of 100%. The rate of LDH leakage (release) was calculated, which is the difference between LDH content of Control group samples and vehicle (hypoxia) group or Leonurine group or Losartan group.

myocardial cells [5] = assay: SOD and CuZn-SOD activities of myocardial cells under hypoxia; type: cell-based, rat; conditions: 10^−6 mol/L
Procedure: Myocardial cell samples were obtained from the same procedure of Example 1B, and the experiments were performed same as Example 1B with the same dosages and same conditions. SOD (superoxide dismutase) plays an important role in balancing oxidant and antioxidant system in an organism. SOD can eliminate superoxide free radicals, thereby protect cells from injury. The activities of SOD and CuZn-SOD in Leonurine treated hypoxia cells are elevated. […] (FIG. 4)

[6] = Plasma Leonurine, cysteine and ascorbic acid levels (capillary electrophoresis) in rat heart failure model; type: in vivo; conditions: HF rats; for plasma Ascorbic acid level / plasma Cysteine level: 8 weeks; for concentration at 8 weeks: rat, plasma, oral, read-out: plasma Leonurine level
Procedure: (§1) Heart failure (HF) animal model, which was occlusive ligation of anterior descending coronary artery, was employed. All treatment was given via intragastric administration. The experimental period was 8 weeks. HF was induced on day eight by ligation of the left anterior descending coronary artery at approximately 2-3 mm from its origin. Briefly, the rats were anesthetized with 7% choral hydrate (60 mg/kg), endotracheally intubated and mechanically ventilated with room air, respiratory rate 100 breaths/min, tidal volume 2.5 ml with a rodent ventilator (DHX-150, China). ECG was recorded in the anaesthetized animal for a period of one minute using the Animal Mflab200 amplifier (Produced in China) as controls. A left thoracotomy was performed and the third intercostal space was exposed. The proximal left anterior descending coronary artery, which supplies blood to left ventricle of the heart, was ligated at the position 2-3 mm from the aorta with a 5-0 atraumatic suture that was passed through the superficial layers of myocardium, between the left auricle and the cone of pulmonary artery. […] Then incisions were sutured and the chests were closed. Sham operated rats were prepared in the same manner except the left coronary was not ligated. After completion of the surgical procedures, rats were removed from the ventilator and the endotracheal tube removed. The rats were kept warm, given water and food after they were awake from the anesthesia and kept in different cages according to experiment groups. The rats in correspondent experiment groups were given corresponding dosages of Leonurine continuously for 8 weeks, while the rats in control and MI groups were given no Leonurine. Two days after ligation, surviving rats were performed in four groups of rats in random fashion. Group 1: Sham-operated rats. The rats served as controls and received saline throughout the study. Group 2: Heart failure rats. This group consisted of rats with heart failure that received saline. Group 3: Heart failure plus low dose leonorine (15 mg/kg/day). Group 4: Heart failure plus high dose leonorine (30 mg/kg/day). All treatment was given via intragastric administration. The experimental period was 8 weeks. To evaluate the effect of Leonurine on HF, catheterizations to arteries and ventricles are performed to record heat rate (HR), mean aortic pressure (MAP), Left Ventricular Systolic Pressure (LVSP), Left Ventricular End-Diastolic Pressure (LVEDP), peak positive first derivative of left ventricular pressure (+dP/dt), peak negative first derivative of left ventricular pressure (−dP/dt). Data from the measurement of the recording were analyzed to observe the effect of Leonurine. Furthermore, plasma cysteine level and plasma ascorbic acid level were measured by capillary electrophoresis.

myocardial cells [7] = assay: MDA content of myocardial cells under hypoxia (TBA method); type: cell-based, rat; conditions: 10^−6 mol/L
Procedure: Myocardial cell samples were obtained from the same procedure of Example 1B, and the experiments were performed same as Example 1B with the same dosages and same conditions. Oxygen free radicals produced by enzyme and non enzyme systems in an organism attack poly unsaturated fatty acid in biomembrane, inducing lipid peroxidation and producing MDA (malondialdehyde). MDA can react with thiobarbituric acid (TBA), forms red product, which can be detected in spectrophotometer at 532 nm. The level of MDA can be used to indicate lipid peroxidation, thereby reflect condition of cell injury.

myocardial ischemic rat [8] = assay: Plasma MDA level and left ventricle SOD activity in MI rat model; type: in vivo; conditions: MI rats; 7.5 or 15 mg/Kg/day intraperitoneal
From the text: MDA reflect lipid peroxidation level in MI injuries myocardial cells. SOD plays an important role in balancing oxidant and antioxidant system in an organism. SOD can eliminate superoxide free radicals, thereby protect cells from injury. Same MI models in same rat groups as Experiment 2A were established. Plasma MDA level and left ventricle SOD activity were detected. […] (FIG. 9 and FIG. 10)

Bcl-2 and Bax = Bcl-2 and Bax mRNA and protein levels in MI rat model; type: in vivo; conditions: MI rats; 7.5 or 15 mg/Kg/day intraperitoneal
From the text: Bax is a gene promoting cell apoptosis. Bcl-2 is an anti apoptosis gene. Same MI models in same rat groups as Experiment 2A were established. mRNA and protein levels of Bax and Bcl-2 were detected. […] (FIG. 11 and FIG. 12)

myocardial cells [9] = assay: Catalase activity of myocardial cells under hypoxia; type: cell-based, rat; conditions: 10^−6 mol/L
Procedure: Myocardial cell samples were obtained from the same procedure of Example 1B, and the experiments were performed same as Example 1B with the same dosages and same conditions. Catalase can catalyze oxygen free radicals, its activity in Leonurine treated hypoxia cells groups is elevated. (FIG. 3)

creatine kinase (CK) = conditions: concentration- and time-dependent; Zhao Wang et al. 2004; cited from earlier work
[10] = test system: animal heart failure model; assay: Cardiac function by catheterization in rat heart failure model; type: in vivo; conditions: HF rats, 8 weeks
Procedure: as §1

myocardial ischemic rat [11] = assay: Plasma LDH and CK levels in MI rat model; type: in vivo; conditions: MI rats; 7.5 or 15 mg/Kg/day intraperitoneal; p<0.05
Procedure: MI injuries myocardial cells and CK and LDH levels are increased in the serum of the animals. After MI, the animal plasma CK level and LDH level were measured, and Leonurine's effects were assessed. Same MI models in same rat groups as Experiment 2A were established. Plasma CK levels were detected with diagnostic kit (NJBI, China) according to the instructions. LDH were determined colorimetrically with a spectrophotometer. […] (FIG. 7 and FIG. 8)

myocardial ischemic rat [12] = assay: Infarct size (TTC staining) and mortality in MI rat model (coronary artery ligation); type: in vivo; conditions: MI rats, 7.5 or 15 mg/Kg/day intraperitoneal, vs saline

For `COc1cc(C(=O)OCCCCNC(=N)N)cc(OC)c1O` [Kardigen], the anti-oxidative effects [1] is given as “has anti-oxidative effects” and the “prevention of ischemia cardiomyopathy” value [1] is given as “can prevent ischemia cardiomyopathy effectively”.

In the case of `COc1cc(C(=O)OCCCCNC(=N)N)cc(OC)c1O` [Leonurine], the “survival rate of myocardial cell (cell viability)” value (myocardial cells [2]) is given as “significantly increase”, the “contraction of the smooth muscle cells” value [3] is given as “inhibiting” and the “intracellular calcium ion release and outside calcium ion influx through calcium channels” value [3] is given as “inhibits”. For the same molecule, the “LDH leaking (release) rate” value (myocardial cells [4]) was “lower”, the CuZn-SOD activity (myocardial cells [5]) was “elevated” and the SOD activity (myocardial cells [5]) was “elevated”. The “plasma Ascorbic acid level” value ([6]; 15 mg/kg/day intragastric) was 26.02 ± 3.95 µmol/L, the “plasma Cysteine level” value ([6]; 15 mg/kg/day intragastric) was 31.3 ± 21.32 µmol/L and the “plasma Ascorbic acid level” value ([6]; 30 mg/kg/day intragastric) was 39.79 ± 4.33 µmol/L. The “plasma Cysteine level” value ([6]; 30 mg/kg/day intragastric) was 35.29 ± 9.73 µmol/L, the concentration at 8 weeks ([6]; 15 mg/kg/day intragastric) was 7.42 ± 3.13 µM and the concentration at 8 weeks ([6]; 30 mg/kg/day intragastric) was 48 ± 11 µM. The “MDA level from lipid peroxidation” value (myocardial cells [7]) was “inhibited”, the “left ventricle SOD activity” value (myocardial ischemic rat [8]) was “increase” and the “plasma MDA level” value (myocardial ischemic rat [8]) was “significantly reduce”. The “Bax mRNA expression” value (Bcl-2 and Bax) was “significantly reduce”, the Bax protein expression (Bcl-2 and Bax) was “significantly reduce” and the “Bcl-2 mRNA expression” value (Bcl-2 and Bax) was “increase”. The Bcl-2 protein expression (Bcl-2 and Bax) was “increase”, the Catalase activity (myocardial cells [9]) was “elevated” and the “activity of creatine kinase (CK)” value (creatine kinase (CK)) was “inhibits the enzyme activity”. For the same molecule, the HR ([10]; 15 mg/kg/day intragastric) was 441 ± 29 beats/min, the LVEDP ([10]; 15 mg/kg/day intragastric) was 11.53 ± 1.83 mmHg and the LVSP ([10]; 15 mg/kg/day intragastric) was 143.77 ± 26.82 mmHg. The MAP ([10]; 15 mg/kg/day intragastric) was 107.86 ± 31.23 mmHg, the dP/dt ([10]; 15 mg/kg/day intragastric) was 4205 ± 412.71 mmHg/s and the “−dP/dt” value ([10]; 15 mg/kg/day intragastric) was −4368.83 ± 662.12 mmHg/s. It also gave an HR ([10]; 30 mg/kg/day intragastric) of 427 ± 78 beats/min, an LVEDP ([10]; 30 mg/kg/day intragastric) of 13 ± 5.96 mmHg and an LVSP ([10]; 30 mg/kg/day intragastric) of 126.37 ± 2.28 mmHg. For the same molecule, the MAP ([10]; 30 mg/kg/day intragastric) was 92.59 ± 10.91 mmHg, the dP/dt ([10]; 30 mg/kg/day intragastric) was 4095 ± 433.45 mmHg/s and the “−dP/dt” value ([10]; 30 mg/kg/day intragastric) was −3276.62 ± 283.77 mmHg/s. For the same molecule, the “plasma CK level” value (myocardial ischemic rat [11]) was “significantly reduce”, the “plasma LDH level” value (myocardial ischemic rat [11]) was “significantly reduce” and the “infarct size of myocardium” value (myocardial ischemic rat [12]; 7 days before and 2 days after ligation) was “significantly less”. For the same molecule, the mortality rate (myocardial ischemic rat [12]) was “not difference”.

In the case of `CCCCc1nc(Cl)c(CO)n1Cc1ccc(-c2ccccc2-c2nn[nH]n2)cc1` [Losartan, reference compound], the “LDH leaking (release) rate” value (myocardial cells [4]) is reported as “lower”.
